What is called bioavailability is the share of a dose that reaches the circulation, judged against a reference dose that is usually intravenous. Lower therefore signals poor availability.

For data set [1], the system named is MPTP-lesioned cynomolgus macaques. The data set is described as follows: Acute DPI-289 in combination with low-dose L-DOPA, versus high-dose L-DOPA, in MPTP-lesioned macaques with L-DOPA-induced dyskinesia. Format: in vivo, Macaca fascicularis. From the text:
This study utilized female MPTP-lesioned cynomolgus macaques that have received chronic repeat-treatment with L-DOPA and manifested stable and reproducible dyskinesia, of choreic and dystonic nature, in response to subsequent L-DOPA-treatments. Eight cynomolgus monkeys (Macaca fascicularis, 7.6-13.1 years of age, 3.0-4.5 kg) were used in this study. In a prior experiment, for each individual animal a low and high dose of L-DOPA was established such that the low dose (LD1) provided modest anti-parkinsonian action (1-2 h) and elicited predominantly non-disabling dyskinesia, the high dose (LDh) provided the best anti-parkinsonian effect achievable but also elicited disabling dyskinesia and an anti-parkinsonian benefit of 2-3 h duration
The behavioral effects of acute DPI-289 administered in combination with low-dose L-DOPA (LD1) were assessed. Also higher dose of L-DOPA was also assessed without the addition of DPI-289. The low dose (LD1) was about 10 to 11 mg/kg of L-DOPA which is considered to be sub-optimal in terms of anti-parkinsonian benefit. The dose of DPI-289 was 20 mg/kg and the high dose of L-DOPA was about 30 to 31 mg/kg and considered to an optimal does in terms of anti-parkinsonian benefit but with disabling dyskinesia. The DPI-289 was administered one (1) hour prior to the L-DOPA and start of observation. Activity counts were collected and parkinsonian disability and dyskinesia was assessed via post-hoc analysis of video-recordings by a movement disorder neurologist blinded to treatment.
On the day before behavioral observations, food was removed overnight, from 5 p.m. On days of behavioral assessment, treatment was administered to the animals in their home cage at approximately 9 a.m. A 6 h period of observation then commenced 1 h after oral dosing.
The animals were rendered parkinsonian by once daily subcutaneous injection of 0.2 mg/kg MPTP, administered for 8-12 days, until the first appearance of parkinsonism symptoms. After this time, a parkinsonian syndrome reached a moderate to marked level, over approximately 30 days, and stabilized. Additional administrations of MPTP were given to some animals to titrate to similar degrees of parkinsonism in individuals across the group. […] Sixty days after commencing MPTP administration, L-DOPA (25 mg/kg) was administered orally twice daily for at least two months. L-DOPA was given with the decarboxylase inhibitor benserazide (as Madopar™). This treatment leads to the development of motor fluctuations, including dyskinesia.

Data set [2] concerns 6-OHDA-lesioned rats. In words: Rotations in unilateral 6-OHDA-lesioned rats. Type of data set: in vivo, rat. From the text:
N=6 rats per group, Newman-Keuls post hoc test was used for statistical significance.
N=8 per group, Newman-Keuls post hoc test for statistical significance.
In a rat model of PD, focal injection of the neurotoxin 6-hydroxydopamine (6-OHDA) was used to create a unilateral lesion of the nigrostriatal dopamine pathway. When challenged with dopamine agonists, rats rotate in the direction contralateral to the lesion and the number of rotations may be used as a measure of anti-parkinsonian efficacy.

A short description of data set [3]: Oral bioavailability in macaques. Details: species or system Macaca fascicularis. The note with it: cynomolgus monkey, in vivo. The source says:
ON-time represents lack of bradykinesia so mere improvement in bradykinesia would not be reflected in changes in ON-time. The oral bioavailability of the drug in these animals was only 1-2% so the lack of effect on ON-time is likely due to inadequate systemic exposure levels. Higher systemic levels of the drug may have a more profound effect on bradykinesia and which could translate into changes in ON-time.

Where [4] appears, read: DPI-289 20 mg/kg in combination with low-dose L-DOPA.

With `CCN(CC)C(=O)c1ccc(C(c2cccc(O)c2)N2C[C@@H](C)N(Cc3cccc(F)c3)C[C@@H]2C)cc1` (stereo partly drawn) [DPI-289, 4-((alpha-R)-alpha-((2S,5R)-2,5-Dimethyl-4-(3-fluorobenzyl)-1-piperazinyl)-3-hydroxybenzyl)-N,N-diethylbenzamide], in data set [1] (setting [4]), the “Good ON-time” value is listed as “comparable ‘good’ time as that of the high dose of L-DOPA”; the alertness result was “improvement in alertness value that mirrored that of the high dose of L-DOPA”; the parkinsonian disability result was “even and consistent level of fairly mild parkinsonian disability”; the postural instability entry is listed as “reduced postural instability from about 2 to 6 hours after the dosing”. In data set [1] (setting [4]), the “range of movement impairment” value was “reduced range of movement impairment than low dose L-DOPA alone but this difference did not reach statistical significance”. In data set [1] (DPI-289 20 mg/kg in combination with low-dose L-DOPA (about 10 to 11 mg/kg), cf. high dose L-DOPA), the motor activity entry was “extended activity into four and five hours”. In addition, the dyskinesia entry in data set [1] (DPI-289 20 mg/kg in combination with low-dose L-DOPA, cf. low-dose L-DOPA alone) is “no additional dyskinesia”. The “BAD ON-time (ON-time with disabling dyskinesia)” value in data set [1] (DPI-289 20 mg/kg in combination with low-dose L-DOPA, relative to high dose L-DOPA) is given as “considerably less of ‘bad’ time”. Besides, the bradykinesia entry in data set [1] (DPI-289 20 mg/kg in combination with low-dose L-DOPA, three to six hours after dosing) is on record as “same level of bradykinesia as that of the high dose of L-DOPA”. In data set [1] (DPI-289 20 mg/kg in combination with sub-therapeutic L-DOPA), the “duration of effect on parkinsonian disability” value was “at least 6 hours”. Besides, the “contralateral and ipsilateral rotations” value in data set [2] (30 mg/kg) is given as “also increased rotations but the effect on contralateral rotations appeared to be diminished”. The “contralateral and ipsilateral rotations” value in data set [2] (1-10 mg/kg i.p.) was “dose-related increase in both contralateral and ipsilateral rotations”. In addition, the L-DOPA-induced contralateral rotations result in data set [2] (co-administered with sub-optimal dose of L-DOPA (25 mg/kg i.p.)) was “marked potentiation of contralateral rotations”. The compound also registered a bioavailability in data set [3] of 1 to 2%.

These data come from patent US10973815B2, “Delta opioid agonist mu opioid antagonist compositions and methods for treating Parkinsons disease” (priority 2016, dated 2021).
